Test results: article PMC13494812, “Towards the Targeted Protein Degradation of PRMT1” (Chemmedchem, 2024)
Values belong to the molecule of their own block, whether it stands above or below them.

Key:
PRMT1 [1] = molecular target: T1, PRMT1 (Homo sapiens, UniProt Q99873); assay: ADMA and MMA levels by Western blot in MCF-7 cells (PRMT1 / Type I PRMT inhibition); type: cell-based; conditions: 10 μM, 24 h; for change in monomethylation of arginine (MMA): Western blot
T1 construct: endogenous in cells; host or cells: MCF-7
T1 sequence (Q99873 whole entry): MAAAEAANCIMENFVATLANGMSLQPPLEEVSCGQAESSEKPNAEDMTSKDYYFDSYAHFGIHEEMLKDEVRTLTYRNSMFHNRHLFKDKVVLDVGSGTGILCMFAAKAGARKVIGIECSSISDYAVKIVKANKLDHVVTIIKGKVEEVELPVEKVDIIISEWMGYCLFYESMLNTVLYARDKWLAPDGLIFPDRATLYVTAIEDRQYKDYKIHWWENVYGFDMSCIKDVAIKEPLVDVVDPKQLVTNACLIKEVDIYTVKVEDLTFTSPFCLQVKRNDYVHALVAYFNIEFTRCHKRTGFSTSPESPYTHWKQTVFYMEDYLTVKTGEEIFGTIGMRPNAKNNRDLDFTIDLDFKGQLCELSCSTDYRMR
Excerpt: The cells were allowed to adhere overnight.
manufacturer’s instructions.

MCF-7 cell line = assay: Cytotoxicity seen in the MCF-7 degradation experiment; type: cell-based, human; conditions: MCF-7 cells, 10 μM, 24 h
KP-3 line = assay: Cytotoxicity seen in the KP-3 degradation experiment; type: cell-based, human; conditions: KP-3 cells, 10 μM, 24 h
Experimental: Figure S5. VHL-recruiting PROTACs in two PDAC-derived cell lines. Western blot of PROTAC A-F in two PDAC-derived cell lines at 10 µM. HPAF-II and KP-3 cells were treated with the indicated compounds at 10 µM for 24 h and then harvested for analysis by Western blot. PROTAC E and PROTAC F were cytotoxic in the KP-3 line.
(1 picture or pasted object on this page, not shown here)

[2] = PROTAC stability in cell culture media; type: in vitro ADME; conditions: read-out: t1/2 in cell culture media (converted)
Excerpt: A SEM protecting group was employed on the glutarimide ring of CRBN ligand 6. Three CRBN‐recruiting PROTACs were synthesised by the O‐alkylation of PRMT1 ligand 4 with the corresponding linker 8 j–l to give 9 j–l which underwent a subsequent O‐alkylation with SEM‐protected CRBN ligand 12. The removal of the protecting groups was then attempted using acidic conditions. The N‐Boc and THP protecting groups on the PRMT1 ligand were removed however the SEM group on the CRBN ligand was converted to an N‐hydroxymethyl functional group. This group was removed under basic conditions to afford PROTACs J–L (Scheme 3 A). It is documented that the glutarimide ring and the phthalimide group of the CRBN ligand are susceptible to hydrolysis,[50, 51] and the stability of PROTAC L in cell culture media was investigated and found to be short (t1/2=0.9 h). Changing the functional group between the CRBN ligand and linker can affect the susceptibility of the ligand to hydrolysis.[52] PROTAC M was synthesised, which comprised a similar structure as PROTAC L, but with an amino group between the linker and CRBN ligand (Scheme 3 B).

NLuc-CRBN fusion protein = molecular target: T2, NLuc-CRBN fusion protein (Homo sapiens, UniProt Q96SW2); assay: CRBN NanoBRET Target Engagement assay in live MCF-7 cells; type: cell-based; conditions: 0.5 µM tracer, 2 h, read-out: IC50, half-maximal inhibition of tracer binding to NLuc-CRBN
T2 construct: host or cells: MCF-7
T2 sequence (Q16531 whole entry, the tested form may be a part): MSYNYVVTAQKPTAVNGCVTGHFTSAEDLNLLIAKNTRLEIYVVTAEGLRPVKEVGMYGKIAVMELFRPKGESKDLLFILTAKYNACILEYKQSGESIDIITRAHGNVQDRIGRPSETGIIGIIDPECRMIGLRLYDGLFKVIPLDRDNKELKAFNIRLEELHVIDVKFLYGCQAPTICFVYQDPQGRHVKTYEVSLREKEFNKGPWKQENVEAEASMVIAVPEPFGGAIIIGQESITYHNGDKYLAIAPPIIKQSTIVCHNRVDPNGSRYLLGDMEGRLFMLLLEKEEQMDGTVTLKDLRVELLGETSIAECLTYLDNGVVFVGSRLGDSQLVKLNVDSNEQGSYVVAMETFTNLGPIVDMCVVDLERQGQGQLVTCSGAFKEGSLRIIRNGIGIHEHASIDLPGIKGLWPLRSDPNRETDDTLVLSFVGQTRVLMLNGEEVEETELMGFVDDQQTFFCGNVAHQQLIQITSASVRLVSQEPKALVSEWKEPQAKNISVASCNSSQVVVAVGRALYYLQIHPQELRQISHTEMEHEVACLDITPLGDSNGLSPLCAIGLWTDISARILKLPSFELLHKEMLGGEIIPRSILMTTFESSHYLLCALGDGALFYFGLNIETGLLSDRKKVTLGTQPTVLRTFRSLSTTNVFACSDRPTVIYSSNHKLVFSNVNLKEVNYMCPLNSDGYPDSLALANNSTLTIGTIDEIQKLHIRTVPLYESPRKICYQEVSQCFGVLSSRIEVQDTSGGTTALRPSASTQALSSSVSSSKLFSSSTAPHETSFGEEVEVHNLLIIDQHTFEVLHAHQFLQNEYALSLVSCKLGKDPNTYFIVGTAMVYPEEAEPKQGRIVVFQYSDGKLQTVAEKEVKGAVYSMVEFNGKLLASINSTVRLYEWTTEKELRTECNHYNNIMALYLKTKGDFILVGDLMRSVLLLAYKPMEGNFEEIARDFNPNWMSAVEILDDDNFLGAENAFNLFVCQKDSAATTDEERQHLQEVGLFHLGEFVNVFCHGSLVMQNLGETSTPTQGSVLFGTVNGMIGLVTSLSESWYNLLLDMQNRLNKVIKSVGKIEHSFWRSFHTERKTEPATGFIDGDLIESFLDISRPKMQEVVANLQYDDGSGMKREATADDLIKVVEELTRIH
T2 sequence (Q96SW2 whole entry, the tested form may be a part): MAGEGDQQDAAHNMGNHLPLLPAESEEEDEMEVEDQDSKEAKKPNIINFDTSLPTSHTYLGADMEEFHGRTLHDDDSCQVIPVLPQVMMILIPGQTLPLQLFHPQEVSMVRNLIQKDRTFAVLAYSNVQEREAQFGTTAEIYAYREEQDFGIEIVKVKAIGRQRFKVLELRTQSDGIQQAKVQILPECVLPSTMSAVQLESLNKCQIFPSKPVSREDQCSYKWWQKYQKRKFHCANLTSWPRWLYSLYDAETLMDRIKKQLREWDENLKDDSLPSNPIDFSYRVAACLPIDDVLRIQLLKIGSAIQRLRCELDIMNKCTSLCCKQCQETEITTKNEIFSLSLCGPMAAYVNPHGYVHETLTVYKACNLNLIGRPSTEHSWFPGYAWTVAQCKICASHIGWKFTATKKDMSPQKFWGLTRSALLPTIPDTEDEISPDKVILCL

PRMT1 [3] = molecular target: T1, PRMT1; assay: PRMT1 degradation assay by Western blot in MCF-7 cells; type: cell-based; conditions: 1 and 0.1 μM, 24 h
Excerpt: A sensitive and selective Western blot protocol was validated to investigate the effect of PROTAC treatment on the cellular levels of PRMT1 in the MCF‐7 cell line (Figure S4, ESI†). Derived from a metastatic breast adenocarcinoma, the MCF‐7 cell line has the hormone receptor status that characterises the most frequently diagnosed subtype of breast cancer: ER‐positive, PR‐positive, HER2‐negative.[43, 44] This breast cancer subtype, and consequently the MCF‐7 cell line, are a suitable model system to predict the clinical efficacy of PRMT1 PROTACs; PRMT1 upregulation correlates with a reduction in relapse‐free survival for patients with this breast cancer subtype[6, 45] and anti‐proliferative effects have been observed in the MCF‐7 cell line following pan‐Type I PRMT inhibition.[17, 20]
Figure 3 PRMT1 and PRMT6 degradation assays with VHL‐recruiting PROTACs. […] PROTACs E–F were cytotoxic and not analysed. […]
(§1) Western Blot Cells were counted using the Vi-CELL XR cell viability analyser, as per manufactures instructions, and the desired number of cells seeded in full media in individual 10 cm plates (Corning, #430167). […]
(§2) The pellet was resuspended in RIPA buffer containing protease and phosphatase inhibitor and incubated at 4 °C for 10 minutes with rotation. […] The supernatant was transferred and the protein concentration quantified by the Direct Detect Spectrometer as per manufacturer’s instructions. […]

PRMT6 = molecular target: T3, PRMT6 (Homo sapiens, UniProt Q96LA8); assay: PRMT6 degradation assay by Western blot in MCF-7 cells; type: cell-based; conditions: 1 and 0.1 μM, 24 h
T3 construct: endogenous in cells; host or cells: MCF-7
T3 sequence (Q96LA8 whole entry): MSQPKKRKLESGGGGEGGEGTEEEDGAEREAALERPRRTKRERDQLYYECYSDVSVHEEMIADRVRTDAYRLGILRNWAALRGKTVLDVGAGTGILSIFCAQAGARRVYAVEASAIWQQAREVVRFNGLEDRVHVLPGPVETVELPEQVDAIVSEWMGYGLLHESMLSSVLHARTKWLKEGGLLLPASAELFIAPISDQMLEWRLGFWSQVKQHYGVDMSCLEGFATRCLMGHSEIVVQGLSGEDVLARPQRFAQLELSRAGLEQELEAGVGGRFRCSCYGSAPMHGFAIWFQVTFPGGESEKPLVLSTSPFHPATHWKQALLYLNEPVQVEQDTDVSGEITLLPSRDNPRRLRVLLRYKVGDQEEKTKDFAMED
Experimental: At 10 μM in the MCF‐7 cell line, PRMT1 degradation was not observed with any of the synthesised PROTACs (Figure 3A). PROTAC E and PROTAC F were cytotoxic and not analysed. […]. PRMT8 is expressed primarily in the brain and thus not investigated.[46]
Figure 3 PRMT1 and PRMT6 degradation assays with VHL‐recruiting PROTACs. A) PROTACs A–I at 10 μM. PROTACs E–F were cytotoxic and not analysed. MCF‐7 cells were treated with the indicated compound for 24 h and then harvested for analysis by Western blot. B) Same as A but PROTACs tested at 1 and 0.1 μM. Image representative of two independent experiments. Uncropped blots are shown in ESI†.
Figure 5 PRMT1 and PRMT6 degradation assays with CRBN‐recruiting PROTACs. A) PROTACs J–O at 10 μM. MCF‐7 cells were treated with the indicated compound for 24 h and then harvested for analysis by Western blot. B) Same as A but PROTAC N tested at 1 and 0.1 μM. […]
as §1, §2

CRBN = molecular target: T4, CRBN (Homo sapiens, UniProt Q96SW2); assay: CRBN binding of N-alkylated molecule 7 (Figure S6)
T4 construct: host or cells: MCF-7
T4 sequence (Q96SW2 whole entry): as the sequence (Q96SW2 whole entry, the tested form may be a part) above
T4 sequence (Q16531 whole entry, further chain): as the sequence (Q16531 whole entry, the tested form may be a part) above
Excerpt: To synthesise PROTACs that recruit the CRBN E3‐ligase, PRMT1 ligand 4 underwent a Mitsunobu reaction to produce 5 which was then used for the alkylation of CRBN ligand 6.

SMILES: CNCCN(C)Cc1c[nH]nc1-c1ccc(OCCCCCCCC(=O)N[C@H](C(=O)N2C[C@H](O)C[C@H]2C(=O)NCc2ccc(-c3scnc3C)cc2)C(C)(C)C)cc1 [PROTAC C]
- change in monomethylation of arginine (MMA) (PRMT1 [1]): significant increase

SMILES: CNCCN(C)Cc1c[nH]nc1-c1ccc(OCCCCCCCCCC(=O)N[C@H](C(=O)N2C[C@H](O)C[C@H]2C(=O)NCc2ccc(-c3scnc3C)cc2)C(C)(C)C)cc1 [PROTAC D]
- change in monomethylation of arginine (MMA) (PRMT1 [1]): significant increase

SMILES: CNCCN(C)Cc1c[nH]nc1-c1ccc(OCCCCCCCCCCCC(=O)N[C@H](C(=O)N2C[C@H](O)C[C@H]2C(=O)NCc2ccc(-c3scnc3C)cc2)C(C)(C)C)cc1 [PROTAC E]
- cytotoxicity (MCF-7 cell line): cytotoxic
- cytotoxicity (KP-3 line): cytotoxic

SMILES: CNCCN(C)Cc1c[nH]nc1-c1ccc(OCCCCCCCCCCCCCCCC(=O)N[C@H](C(=O)N2C[C@H](O)C[C@H]2C(=O)NCc2ccc(-c3scnc3C)cc2)C(C)(C)C)cc1 [PROTAC F]
- cytotoxicity (MCF-7 cell line): cytotoxic
- cytotoxicity (KP-3 line): cytotoxic

Further lines, with some results ahead:

- half-life [2]: 0.9 h
- IC50 (NLuc-CRBN fusion protein): > 10000 nM
SMILES: CNCCN(C)Cc1c[nH]nc1-c1ccc(OCCOCCOCCOCCOCCOCCOc2cccc3c2C(=O)N(C2CCC(=O)NC2=O)C3=O)cc1 (stereo not drawn) [PROTAC L]

- half-life [2]: 2.1 h
- IC50 (NLuc-CRBN fusion protein): 1900 nM
SMILES: CNCCN(C)Cc1c[nH]nc1-c1ccc(OCCOCCOCCOCCOCCOCCNc2cccc3c2C(=O)N(C2CCC(=O)NC2=O)C3=O)cc1 (stereo not drawn) [PROTAC M]

- inhibition of PRMT1 activity (PRMT1 [1]; ADMA/MMA Western blot): inhibited PRMT1 activity
- IC50 (NLuc-CRBN fusion protein): 200 nM
SMILES: CNCCN(C)Cc1c[nH]nc1-c1ccc(OCCCCCCNc2cccc3c2C(=O)N(C2CCC(=O)NC2=O)C3=O)cc1 (stereo not drawn) [PROTAC N]
- PRMT1 degradation (PRMT1 [3]): neither PRMT1 nor PRMT6 degradation was observed
- PRMT6 degradation (PRMT6): neither PRMT1 nor PRMT6 degradation was observed

- CRBN binding (CRBN): does not bind CRBN
SMILES: CNCCN(C)Cc1c[nH]nc1-c1ccc(OCCOCCN2C(=O)CCC(N3C(=O)c4cccc(O)c4C3=O)C2=O)cc1 (stereo not drawn) [compound 7]
